Measurements published in the supplement of paper PMC11451515.

Tests used:
Conditions in all cases: 48 h
[1] = test system: SEM cells; assay: AUC of viability dose-response curve (% viability x log10 dose units); higher = less sensitive
In short: (§1)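 Library compounds in DMSO were applied for 48 h at 37°C at 11 threefold doses (47 μM to 0.79 nM) to medium-adapted leukemia cells in 1536-well plates holding 500 or 1000 cells/well. Luminescence from CellTiter-Glo One was normalised plate by plate against DMSO and cell-free wells. Area under the curve came from trapezoidal integration of a log-logistic fit, after scaling curves that rose above full viability and discarding those that failed quality control. The fit had four parameters and used log10 doses.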

[2] = test system: NOMO1; assay: as above
In short: as §1

[3] = test system: P12-Ichikawa; assay: as above
In short: as §1

[4] = test system: SEM cells; assay: cell viability relative to DMSO control; higher = less cytotoxic
In short: (§2)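 Library compounds in DMSO were pin-dosed in an 11-point threefold series (47 μM to 0.79 nM) onto leukemia cells in 1536-well plates (5 μl). Plates held 500 cells/well of NOMO1 or SEM or 1000 cells/well of P12-Ichikawa, each adapted for at least four passages in each medium. Luminescence was read with CellTiter-Glo One after 48 h at 37°C. Viability means the per-plate percentage relative to DMSO wells, using cell-free wells as background.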

[5] = test system: NOMO1; assay: as above
In short: as §2

[6] = test system: P12-Ichikawa; assay: as above
In short: as §2

COC1=CC=C(C=C1)C/2=C(OC3O[C@@H](C)[C@H](O)[C@@H](O)[C@H]3O)/C(=O)C4=C(O2)C(=C(OC5O[C@H](CO)[C@@H](O)[C@H](O)[C@H]5O)C=C4O)CC=C(C)C (some centres undefined)
AUC of viability dose-response curve
Conditions | [1] | [2] | [3]
HPLM + 10% dialyzed FBS | 439 | 445 | 456
RPMI 5 mM glucose + 10% FBS | 420 | 457 | 459
RPMI 5 mM glucose + 10% dialyzed FBS | 435 | 462 | 469

[4], RPMI 5 mM glucose + 10% dialyzed FBS
Conditions | cell viability [%]
0.000781 µM | 127
0.00234 µM | 123
0.00702 µM | 117
0.0211 µM | 118
0.0632 µM | 126
0.19 µM | 129
0.569 µM | 124
1.71 µM | 114
5.12 µM | 115
15.4 µM | 80.7
46.1 µM | 14.7

CCOc1cc(N2CCC(O)CC2)ccc1Nc1ncc2c(n1)N(C)c1ccccc1C(=O)N2C
AUC of viability dose-response curve
Conditions | [1] | [2] | [3]
HPLM + 10% dialyzed FBS | 441 | 321 | 350
RPMI 5 mM glucose + 10% FBS | 421 | 301 | 352
RPMI 5 mM glucose + 10% dialyzed FBS | 428 | 318 | 370

[4], HPLM + 10% dialyzed FBS
Conditions | cell viability [%]
0.000781 µM | 106
0.00234 µM | 117
0.00702 µM | 133
0.0211 µM | 126
0.0632 µM | 130
0.19 µM | 133
0.569 µM | 139
1.71 µM | 146
5.12 µM | 119
15.4 µM | 94.9
46.1 µM | 7.22

C[C@H](c1ccc(F)cc1CCCC(=O)O)N(c1cc(F)ccc1F)[S+](=O)([O-])c1ccc(Cl)cc1
AUC of viability dose-response curve
Conditions | [1] | [2] | [3]
HPLM + 10% dialyzed FBS | 462 | 452 | 454
RPMI 5 mM glucose + 10% FBS | 465 | 455 | 449
RPMI 5 mM glucose + 10% dialyzed FBS | 461 | 450 | 447

CC(C)c1cccc(C(C)C)c1O
AUC of viability dose-response curve
Conditions | [1] | [2] | [3]
HPLM + 10% dialyzed FBS | 453 | 463 | 453
RPMI 5 mM glucose + 10% FBS | 459 | 453 | 463
RPMI 5 mM glucose + 10% dialyzed FBS | 469 | 455 | 447

F\C1=C\NC(=O)NC1=O
AUC of viability dose-response curve
Conditions | [1] | [2] | [3]
HPLM + 10% dialyzed FBS | 407 | 414 | 405
RPMI 5 mM glucose + 10% FBS | 410 | 437 | 435
RPMI 5 mM glucose + 10% dialyzed FBS | 412 | 422 | 413

COc1ccc([S+](=O)([O-])Nc2cc(-c3c(O)ccc4ccccc34)c(O)c3ccccc23)cc1
AUC of viability dose-response curve
Conditions | [1] | [2] | [3]
HPLM + 10% dialyzed FBS | 408 | 435 | 429
RPMI 5 mM glucose + 10% FBS | 383 | 453 | 439
RPMI 5 mM glucose + 10% dialyzed FBS | 389 | 462 | 432

cell viability [%], [4]
Conditions | HPLM + 10% dialyzed FBS | RPMI 5 mM glucose + 10% FBS
0.000781 µM | 96.8 | 114
0.00234 µM | 111 | 115
0.00702 µM | 134 | 124
0.0211 µM | 115 | 131
0.0632 µM | 101 | 119
0.19 µM | 116 | 127
0.569 µM | 101 | 115
1.71 µM | 97 | 88.7
5.12 µM | 86.4 | 78.6
15.4 µM | 43.4 | 18.4
46.1 µM | 6.74 | 5.19

COc1nc(N)nc2c1ncn2[C@@H]1O[C@H](CO)[C@@H](O)[C@@H]1O
AUC of viability dose-response curve
Conditions | [1] | [2] | [3]
HPLM + 10% dialyzed FBS | 472 | 458 | 455
RPMI 5 mM glucose + 10% FBS | 449 | 444 | 462
RPMI 5 mM glucose + 10% dialyzed FBS | 463 | 448 | 456

O=C1NC(=O)/C(=C/c2ccc3c(c2)OC(F)(F)O3)S1
AUC of viability dose-response curve
Conditions | [1] | [2] | [3]
HPLM + 10% dialyzed FBS | 464 | 465 | 462
RPMI 5 mM glucose + 10% FBS | 466 | 446 | 463
RPMI 5 mM glucose + 10% dialyzed FBS | 466 | 457 | 440

C/C1=C/C(=C(/CNC(=O)C2=CC(=CC3=C2C=N[N]3C4CCCC4)C5=CC=C(CN6CCOCC6)C=C5)C(=O)N1)C
AUC of viability dose-response curve
Conditions | HPLM + 10% dialyzed FBS | RPMI 5 mM glucose + 10% FBS | RPMI 5 mM glucose + 10% dialyzed FBS
[2] | 448 | 456 | 451
[3] | 456 | 462 | 452

cell viability [%]
Conditions | [4] | [5] | [6]
HPLM + 10% dialyzed FBS, 0.000781 µM | 113 | – | 113
HPLM + 10% dialyzed FBS, 0.00234 µM | 122 | – | 118
HPLM + 10% dialyzed FBS, 0.00702 µM | 126 | – | 118
HPLM + 10% dialyzed FBS, 0.0211 µM | 23.4 | – | 117
HPLM + 10% dialyzed FBS, 0.0632 µM | 117 | – | 124
HPLM + 10% dialyzed FBS, 0.19 µM | 127 | – | 120
HPLM + 10% dialyzed FBS, 0.569 µM | 115 | – | 114
HPLM + 10% dialyzed FBS, 1.71 µM | 115 | – | 112
HPLM + 10% dialyzed FBS, 5.12 µM | 113 | – | 114
HPLM + 10% dialyzed FBS, 15.4 µM | 106 | – | 106
HPLM + 10% dialyzed FBS, 46.1 µM | 7.3 | – | 38.6
RPMI 5 mM glucose + 10% FBS, 0.000781 µM | 97.8 | 110 | 128
RPMI 5 mM glucose + 10% FBS, 0.00234 µM | 103 | 125 | 124
RPMI 5 mM glucose + 10% FBS, 0.00702 µM | 116 | 118 | 120
RPMI 5 mM glucose + 10% FBS, 0.0211 µM | 18.1 | 120 | 117
RPMI 5 mM glucose + 10% FBS, 0.0632 µM | 106 | 132 | 126
RPMI 5 mM glucose + 10% FBS, 0.19 µM | 96.5 | 127 | 123
RPMI 5 mM glucose + 10% FBS, 0.569 µM | 83.4 | 127 | 126
RPMI 5 mM glucose + 10% FBS, 1.71 µM | 93.2 | 124 | 123
RPMI 5 mM glucose + 10% FBS, 5.12 µM | 92 | 104 | 115
RPMI 5 mM glucose + 10% FBS, 15.4 µM | 67.5 | 117 | 122
RPMI 5 mM glucose + 10% FBS, 46.1 µM | 4.27 | 22 | 45.8
RPMI 5 mM glucose + 10% dialyzed FBS, 0.000781 µM | 116 | 124 | –
RPMI 5 mM glucose + 10% dialyzed FBS, 0.00234 µM | 124 | 118 | –
RPMI 5 mM glucose + 10% dialyzed FBS, 0.00702 µM | 132 | 128 | –
RPMI 5 mM glucose + 10% dialyzed FBS, 0.0211 µM | 22.7 | 123 | –
RPMI 5 mM glucose + 10% dialyzed FBS, 0.0632 µM | 130 | 125 | –
RPMI 5 mM glucose + 10% dialyzed FBS, 0.19 µM | 122 | 111 | –
RPMI 5 mM glucose + 10% dialyzed FBS, 0.569 µM | 118 | 131 | –
RPMI 5 mM glucose + 10% dialyzed FBS, 1.71 µM | 129 | 125 | –
RPMI 5 mM glucose + 10% dialyzed FBS, 5.12 µM | 128 | 125 | –
RPMI 5 mM glucose + 10% dialyzed FBS, 15.4 µM | 126 | 112 | –
RPMI 5 mM glucose + 10% dialyzed FBS, 46.1 µM | 6.82 | 13.5 | –
